What was measured:
[1] = target: T1, aspartic acid endopeptidase (Legumain) (Homo sapiens, UniProt Q99538); test: Enzymatic cleavage (digestion) efficiency of linkers; format: biochemical; details: linker cleaved by Legumain
T1 sequence (Q99538 18-323): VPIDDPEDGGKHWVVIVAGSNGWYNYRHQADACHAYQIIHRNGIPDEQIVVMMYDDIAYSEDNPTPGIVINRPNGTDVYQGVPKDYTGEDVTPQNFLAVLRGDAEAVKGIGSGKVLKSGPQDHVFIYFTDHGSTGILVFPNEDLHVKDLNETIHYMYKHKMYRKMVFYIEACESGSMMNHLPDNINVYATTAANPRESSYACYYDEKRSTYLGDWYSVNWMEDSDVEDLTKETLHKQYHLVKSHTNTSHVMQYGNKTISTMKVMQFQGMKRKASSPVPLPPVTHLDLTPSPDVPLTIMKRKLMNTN
Method: (§1) The specific aspartic acid endopeptidase (Legumain) enzyme substrate peptide was ligated to different types of carbohydrates, and the stability and enzymatic cleavage efficiency of the resulting linker were tested, and a strong activation was predicted.

[2] = Stability of carbohydrate-linked enzyme substrate peptide linkers; format: physicochemical; details: linker: carbohydrate linked to the enzyme substrate peptide
Method: as §1

CT26 tumor cells [3] = test: CT26 immunotherapy model (Example 15); format: in vivo, mice; details: for Cure rate % / Number of cures: 10 in each group; for Tumor inhibition rate % (Day 42): IV ⅓ MTD once a week, 6 weeks; for Recurrence rate % (Week 7): cured mice re-inoculated with CT26 cells after 50 days
Method: (§2) 1) CT26 tumor cells were purchased from ATCC, and the cells were cultured using a 10% fetal bovine serum DMEM medium at 37° C., 5% CO2. The cells were passaged every 3 days and the cells were used within 15 generations.
(§3) 2) Tumor production: 10^6 live CT26 tumor cells were injected subcutaneously into the back of tumor-immunized […], and treatment was started when the tumor grew to about 0.3-0.4 cm. The tumor size (mm^3) of the mice was recorded and compared with the solvent control group. The tumor inhibition rate on day 42 was calculated in the solvent control group.
(§4) 3) Treatment process: IV injection is used, and the drug is used at a dose of ⅓ MTD once a week Immunosuppressive IV injection treatment once a week for a total of 6 weeks of treatment.
(§5) 4) The cure rate of 10 in each group was counted. After 50 days, the cured mice and wild groups were inoculated […] to detect recurrence.

aspartic endopeptidase = target: T2, aspartic endopeptidase (Homo sapiens, UniProt Q99538); test: Activation efficiency by aspartic endopeptidase (HPLC); format: biochemical; details: 1 mg/ml compound, enzyme 1 μmol/L, pH 6.0, 37° C., 2 hours; ratio of released product to original compound
T2 sequence (Q99538 18-323): T1 sequence (Q99538 18-323)
Method: The sample compound and a portion of the control compound (herein, all of the control compounds can be synthesized by a method similar to that described in Examples 1-3) were uniformly diluted 10-fold to 1 mg/ml with the enzyme-digesting solution. In this experiment, 1 mg/ml of the sample compound was added to the aspartic endopeptidase (1 μmol/L, pH 6.0) at 37° C. for 2 hours. After the reaction, the enzyme digest was able to release the enzyme-digested product. The decrease in the compound and the increase in the product were examined by HPLC to compare the enzyme activation efficiency (the ratio of the product released by the enzyme cleavage to the original compound).

[4] = MTD (maximum tolerated dose) acute toxicity in mice; format: in vivo, mouse; details: mouse, in vivo, BALB/C mice, intravenous, observed 17 days; for MTD at 17 days: female
Excerpt: (§6) Test purpose: to investigate the acute toxicity of highly activated compounds by targeted site molecules of the invention by measuring the MTD (maximum tolerated dose) experiment in mice.
(§7) The injections of each drug and the control drug were uniformly dissolved using water for injection, and diluted to the corresponding dose with physiological saline during the test.
(§8) Methods and results: […] BALB/C mice, weighing 19-21 g, were randomly divided into 10 groups, with 10 mice in each group. […] A control test of the saline group and the adriamycin group injection (commercially available, Beijing Yue kang) was carried out, and the injection volume of each mouse was 0.2 ml. […] On the D3, D5, and D14, blood samples were taken for whole blood count.

BALB/C mouse = test: as above; format: in vivo; details: intravenous; for Number of deaths: 10 mice per group; for Death dose: observed 17 days
Excerpt: as §6, §7, §8

D121 lung cancer cells = test: D121 lung cancer immunotherapy model; details: single agent; for Tumor inhibition rate/% (week 7): i.v. ⅙ MTD once a week for 4 weeks; for CD8: CD45 (%): tumor CD8+ T cells among CD45-positive cells, flow cytometry
Method: (1) D121 lung cancer cells purchased from ATCC were cultured in DMEM medium containing 10% fetal bovine serum at 37° C. and 5% CO2, and the cells were digested with EDTA trypsin according to routine use, and passed two to three times a week for placement.
(2) Animals: C57 BALB/C mice, 6-8 weeks old, female, weighing about 18-22 g, purchased from Shanghai SLAC Laboratory Animal Co., Ltd.
3) Immunization: Mice were intraperitoneally injected with 100 μL of 5×10^5 D121 lung cancer cells that died by repeated freeze-thaw cycles, and immunized 3 times with an interval of 2 weeks.
4) Cell seeding: Collect the tumor cells in logarithmic growth phase, adjust the D121 cell concentration to (1×10^7/ml) with DMEM basal medium, 0.1 ml of the cell suspension was inoculated to the right side of each mouse subcutaneously with a 1 ml syringe. […] Tumor volume was observed and measured, and the average tumor volume reached 100-200 mm^3 about 7 days after inoculation, that is, tumor cell-bearing mice were grouped and administered. The immunized group in Table 9 was immunized with D121 lung cancer cells, and the D121 dead tumor cell immunized group was injected with physiological saline as a control.
The immunosuppressive regulatory point protein Anti-PD-L1 antibody was injected twice a week. A total of two weeks.
6) Experimental observation: During the whole experiment, the use and observation of experimental animals were carried out in accordance with the regulations of AAALAC. The experimental animals were observed daily after inoculation of tumor cells, and their onset and death were recorded. During the routine experiment, all experimental animals were monitored and recorded for behavior, feeding, water intake, weight change, hair shine and other abnormalities.
(7) Analysis of tumor CD8+ T cells (T lymphocyte subsets). Tumor tissues were ground and single cancer cells were isolated by filtration using 40 μm Nylon cell strainer, lysed twice with blood cell lysis buffer for 20 min, washed twice with 1% BSA-PBS buffer, centrifuged, and resuspended, and then the cells were counted again. 1×10^5 cells were incubated with leukocyte co-antigen CD45-PE and CD8-FITC-labeled antibody for 1 hour at room temperature in the dark, and then analyzed the proportion of T lymphocyte antigen (CD8) in leukocyte common antigen (CD45)-positive cells by flow cytometry.

[5] = Solid stability, 60° C. for 10 days in the dark (HPLC); format: physicochemical; details: solid, 60° C., 10 days, dark; for Stability(%): content versus time 0
Method: The test was carried out by leaving it at 60° C. for 10 days in the dark. The ratio of the change in the content of the compound to the compound at time 0 was measured by HPLC, and the stability value (%) was calculated.

CT26 tumor cells [6] = test: CT26 treatment model (Example 17); format: in vivo, mice; details: CT26 model as in Example 15
Method: as §2, §3, §4, §5
The CT26 immunotherapy model was constructed as in Example 15, and the pharmacodynamic and immunotherapeutic effects of the compounds S4-S6, S9-S12 and S15-S18 in the CT26 treatment model were tested.

| Compound | Digestion efficiency [1] | stability [2] | Cure rate % (CT26 tumor cells [3]) | Number of cures (CT26 tumor cells [3]) | Tumor inhibition rate % (Day 42) (CT26 tumor cells [3]) | Activation efficiencies (%) (aspartic endopeptidase) | MTD [4] | Number of deaths (BALB/C mouse) | Death dose (BALB/C mouse) | Tumor inhibition rate/% (week 7) (D121 lung cancer cells) | CD8: CD45 (%) (D121 lung cancer cells) | Stability verdict (stable / unstable) [5] | Stability(%) [5] | CD8: CD45 (%) (CT26 tumor cells [6]) | Number of animals cured (CT26 tumor cells [6]) | Recurrence rate/% (at week 10) (CT26 tumor cells [6]) | Tumor inhibition rate/% (at week 7) (CT26 tumor cells [6]) | MTD at 17 days [4] | Recurrence rate % (Week 7) (CT26 tumor cells [3]) |
| --- | --- | --- | --- | --- | --- | --- | --- | --- | --- | --- | --- | --- | --- | --- | --- | --- | --- | --- | --- |
| CC(/N=C/[C@H](O)[C@@H](O)[C@H](O)CO)C(=O)NC(C)C(=O)NC(CC(N)=O)C(=O)Nc1ccc(CO)cc1 (some centres unmarked) | 60.4% | 78.9% | – | – | – | – | – | – | – | – | – | – | – | – | – | – | – | – | – |
| C[C@H](N=C[C@H](O)[C@@H](O)[C@H](O)[C@H](O)CO)C(=O)N[C@@H](C)C(=O)N[C@@H](CC(N)=O)C(=O)Nc1ccc(COC(=O)N(C)CCNC(=O)c2cc(Oc3ccc(NC(=O)Nc4ccc(Cl)c(C(F)(F)F)c4)cc3)ccn2)cc1 [Compound C4, Glucose-AAN-PABC-Compound a, reference compound] | – | – | 0% | 0 | 36.6% | 46.7% | 80 mg/kg | 2 | 90 mg/kg | 40.8% | 10.7% | unstable | 85.7% | – | – | – | – | – | – |
| CC(NC(=O)C(C)NC(=O)[C@H](O)[C@H](O)[C@@H](O[C@@H]1O[C@H](CO)[C@H](O)[C@H](O)[C@H]1O)[C@H](O)CO)C(=O)NC(CC(N)=O)C(=O)Nc1ccc(COC(=O)Nc2nccc(-c3sc(C(C)(C)C)nc3-c3cccc(NS(=O)(=O)c4c(F)cccc4F)c3F)n2)cc1 (some centres unmarked) [Compound S4] | – | – | – | – | – | – | – | 2 | 300 mg/kg | 70.7% | 15.8% | – | – | 11.9% | 2 | 0% | 58.9% | 280 mg/kg | – |
| CC(NC(=O)C(C)NC(=O)[C@H](O)[C@H](O)[C@@H](O[C@@H]1O[C@H](CO)[C@H](O)[C@H](O)[C@H]1O)[C@H](O)CO)C(=O)NC(CC(N)=O)C(=O)Nc1ccc(COC(=O)Nc2c(-c3nc4ccc(N5CCN(C)CC5)cc4[nH]3)c(=O)[nH]c3cccc(F)c23)cc1 (some centres unmarked) [Compound S5] | – | – | – | – | – | – | – | 2 | 320 mg/kg | 76.7% | 15.3% | – | – | 11.5% | 1 | 0% | 60.1% | 310 mg/kg | – |
| CC(NC(=O)C(C)NC(=O)[C@H](O)[C@H](O)[C@@H](O[C@@H]1O[C@H](CO)[C@H](O)[C@H](O)[C@H]1O)[C@H](O)CO)C(=O)NC(CC(N)=O)C(=O)Nc1ccc(COC(=O)N2CC(C)(C)c3ccc(NC(=O)c4cccnc4NCc4ccncc4)cc32)cc1 (some centres unmarked) [Compound S6] | – | – | – | – | – | – | – | 1 | 290 mg/kg | 73.4% | 14.4% | – | – | 14.9% | 1 | 0% | 66.7% | 280 mg/kg | – |
| CC(NC(=O)C(NC(=O)[C@H](O)[C@H](O)[C@@H](O[C@@H]1O[C@H](CO)[C@H](O)[C@H](O)[C@H]1O)[C@H](O)CO)C(C)C)C(=O)NC(CC(N)=O)C(=O)Nc1ccc(COC(=O)N(C)CCNC(=O)c2cc(Oc3ccc(NC(=O)Nc4ccc(Cl)c(C(F)(F)F)c4)cc3)ccn2)cc1 (some centres unmarked) [Compound S7, Lacto-VAN-PABC-compound a] | – | – | 70% | 7 | 84.7% | 90.5% | – | 1 | 345 mg/kg | – | – | stable | 97.2% | – | – | – | – | 300 mg/kg | 0% |
| CC(NC(=O)C(NC(=O)[C@H](O)[C@H](O)[C@@H](O[C@@H]1O[C@H](CO)[C@H](O)[C@H](O)[C@H]1O)[C@H](O)CO)C(C)C)C(=O)NC(CC(N)=O)C(=O)Nc1ccc(COC(=O)N(C)CCNC(=O)c2cc(Oc3ccc(NC(=O)Nc4ccc(Cl)c(C(F)(F)F)c4)c(F)c3)ccn2)cc1 (some centres unmarked) [Compound S8, Lacto-VAN-PABC-compound b] | – | – | 70% | 7 | 73.4% | 93.7% | – | 2 | 340 mg/kg | – | – | stable | 98.4% | – | – | – | – | 280 mg/kg | 0% |
| CC(NC(=O)C(NC(=O)[C@H](O)[C@H](O)[C@@H](O[C@@H]1O[C@H](CO)[C@H](O)[C@H](O)[C@H]1O)[C@H](O)CO)C(C)O)C(=O)NC(CC(N)=O)C(=O)Nc1ccc(COC(=O)N(C)CCNC(=O)c2cc(Oc3ccc(NC(=O)Nc4ccc(Cl)c(C(F)(F)F)c4)cc3)ccn2)cc1 (some centres unmarked) [Compound S13, Lacto-TAN-PABC-compound a] | – | – | 80% | 8 | 79.7% | 98.6% | – | 2 | 360 mg/kg | – | – | stable | 98.6% | – | – | – | – | 320 mg/kg | 0% |
| CC(NC(=O)C(NC(=O)[C@H](O)[C@H](O)[C@@H](O[C@@H]1O[C@H](CO)[C@H](O)[C@H](O)[C@H]1O)[C@H](O)CO)C(C)O)C(=O)NC(CC(N)=O)C(=O)Nc1ccc(COC(=O)N(C)CCNC(=O)c2cc(Oc3ccc(NC(=O)Nc4ccc(Cl)c(C(F)(F)F)c4)c(F)c3)ccn2)cc1 (some centres unmarked) [Compound S14, Lacto-TAN-PABC-compound b] | – | – | 80% | 8 | 85.% | 99.5% | – | 1 | 350 mg/kg | – | – | stable | 97.8% | – | – | – | – | 310 mg/kg | 0% |
| Lacto-AAN-PABC-Paclitaxel [Compound C5, reference compound] | – | – | – | – | – | 59.3% | – | – | – | – | – | unstable | 89.3% | – | – | – | – | – | – |
